This assay relates to A549. The experiment in a line: Cytotoxicity against human A549 cells. It is filed as functional, cell-based.

These results are taken from ChEMBL document CHEMBL1141271, “Laurendecumallenes A-B and laurendecumenynes A-B, halogenated nonterpenoid C(15)-acetogenins from the marine red alga Laurencia decumbens” (J Nat Prod, 2007).

One may read the IC50 as the point on the concentration scale where inhibition reaches its midpoint. Lower therefore signals inhibition by little substance.

Regarding `CC[C@@H](Br)[C@H]1C[C@H](O)[C@H](O)C[C@H]2O[C@H](C=C=CBr)C[C@H]2O1` [LAURENDECUMALLENE B], the IC50 is greater than 10 µg/mL.

The molecule `C#C/C=C\C[C@@H]1O[C@@H]2C[C@H](Br)[C@H](CC)O[C@@H]2C[C@@H]1Br` returned an IC50 greater than 10 µg/mL. In turn, `C#C/C=C\C[C@@H]1O[C@@H]2C[C@H](Br)[C@H](CC)O[C@@H]2C[C@@H]1Cl` [LAURENDECUMENYNE B] had an IC50 greater than 10 µg/mL. For `C#C/C=C\C[C@H]1O[C@@H]2C[C@H](Br)[C@@H](CC)O[C@H]1C[C@H]2OO` [LAURENDECUMENYNE A] the value was greater than 10 µg/mL; for `CC[C@H]1O[C@@H]2C[C@@H](C=C=CBr)O[C@@H]2C[C@@H](O)[C@H](O)C[C@@H]1Br` [LAURENDECUMALLENE A], greater than 10 µg/mL.
